In patent US7709451B2, “Method and composition for treating immune complex associated disorders” (Trustees of Boston University, priority 1997, dated 2010):
Entries after “also recorded” stand apart in the source; their conditions may differ.

What was measured:
AM14 RF+ B cells = test: RF+ B cell proliferation (3[H]-thymidine incorporation); type: cell-based, mouse; conditions: for Inhibition of RF+ B cell response to mAb PL2-3 / chromatin-containing IC: FIGS. 5A-5C
Method: Cell culture and reagents. Spleen cell preparations were T-depleted and cultured with the appropriate ligands for 40-48 hrs. In some experiments, B cells were preincubated with CD40L as described (Rifkin, et al., J. Immunol. 165, 1626-1633 (2000)). Proliferation was assessed by ^3[H]-thymidine incorporation during the final 16 hours of culture. Data are presented as the mean percentage of the anti-IgM response from triplicate cultures. The percentage of the anti-IgM response was calculated according to the formula: [(cpm experimental condition−cpm CD40L alone)/(cpm anti-IgM−cpm CD40L alone)×100].
In some experiments, DNase I (type IV) (Sigma, St. Louis, Mo.), chloroquine (Sigma), concanamycin B, bafilomycin A (Sigma), or 12 μg/ml of the inhibitory CpG S-ODN 2008 (Lenart, et al., Antisense Nucleic Acid Drug Dev. 4, 247-256 (2001)) (Oligo's Etc.) were added to the cultures 15-30 min-2 hr before the addition of the ligands.

[1] = in vivo; cited from earlier work
[2] = tested on: CD11c positive dendritic cells from bone marrow of C57BL/6 mice; test: Dendritic cell activation (TNF-α and IL-12 ELISA, CD86 flow cytometry); type: cell-based, mouse; conditions: for TNF-α in culture supernatants (ELISA): 48 hours
Method: Dendritic cells were generated from the bone marrow of C57BL/6 mice by in vitro culture with GM-CSF and IL-4 for 6 days. On day 6, the CD11c positive dendritic cells were isolated using magnetic beads (Miltenyi Biotec) and either pre-incubated, or not pre-incubated, for 30 minutes with ODN 2088, an inhibitory oligodeoxynucleotide that specifically blocks signaling through TLR9. The stimulatory ODN 1826 (CpG, 3 μg/ml), that specifically activates through TLR9, or lipopolysaccharide (LPS, 10 μg/ml), that activates through TLR4, or culture medium only (media), was then added to the cultures. After 48 hours, levels of TNF-α (8A) and IL-12 (8B) in the culture supernatants were measured by ELISA (results shown as OD units determined by absorption at 405 nm). After removal of the supernatants, cells were collected and analyzed by flow cytometry for expression of the co-stimulatory molecule CD86 (8c). Unstimulated refers to the level of expression of CD86 in the presence of media alone, whereas stimulated refers to the level of expression of CD86 in the presence of the stimulus (ODN 1826 or LPS).
Dendritic cells were generated from the bone marrow of C57BL/6 mice by in vitro culture with GM-CSF and IL-4 for 6 days. On day 6, the CD11c positive dendritic cells were isolated using magnetic beads (Miltenyi Biotec). The dendritic cells were then either pre-incubated, or not pre-incubated, for 30 minutes with ODN 2088 at 12 μg/ml. The stimulatory ODN 1826 (3 μg/ml), that specifically activates through TLR9, lipopolysaccharide (LPS, 10 μg/ml), that activates through TLR4, the anti-chromatin antibody PL2-3 (50 μg/ml), three different antibody/protein ratios of α-TNP/TNP-BSA immune complexes (50 μg/ml), or the culture medium only (media), was then added to the cultures. After 48 hours, levels of TNF-α in the culture supernatants was measured by ELISA (results shown as pg/ml; lower level of sensitivity of assay is 50 pg/ml). A representative experiment of 3 similar experiments is shown.
(§1) Dendritic cells were generated from the bone marrow of C57BL/6 wildtype mice and from C57BL/6 mice lacking the Fc receptor γ chain in by in vitro culture of the bone marrow cells with GM-CSF and IL-4 for 6 days. On day 6, the CD11c positive dendritic cells were isolated using magnetic beads. The stimulatory ODN 1826 (3 μg/ml), that specifically activates through TLR9, lipopolysaccharide (LPS, 10 μg/ml), the anti-chromatin antibodies PL2-3 (50 μg/ml; IgG2a) and PL2-8 (50 μg/ml; IgG2b), two different antibody/protein ratios of α-TNP/TNP-BSA immune complexes (50 μg/ml), or the culture medium only (media), was then added to the dendritic cell cultures. After 48 hours, levels of TNF-α in the culture supernatants was measured by ELISA (results shown as pg/ml; lower level of sensitivity of assay is 50 pg/ml). A representative experiment of 2 similar experiments is shown.

[3] = tested on: dendritic cells from C57BL/6 mice lacking the Fc receptor γ chain; test: Dendritic cell TNF-α production, Fc receptor γ chain deficient mice; type: cell-based, mouse; conditions: Table 2, Fc receptor γ chain deficient dendritic cells; 48 hours
Method: as §1

RF+ MyD88−/− B cells = test: Proliferation of RF+ MyD88-/- B cells; type: cell-based, mouse; conditions: FIG. 4C
Method: To investigate the potential role of TLRs in mediating RF+ B cell responses to autoantibody/autoantigen IC, we crossed the AM14 transgenes onto a MyD88−/− background (Adachi, et al., Immunity 9, 143-150 (1998)). B cells from RF− MyD88+/+ (wildtype), RF+ MyD88+/+, and RF+ MyD88−/− offspring, identified by a combination of PCR and FACS analysis (FIGS. 4A-4B), were assessed for their ability to respond to anti-IgM, CpG ODN, and LPS, as well as to a panel of anti-nucleosome mAbs and autoimmune sera.
Mice. […] Complement receptor genotype was determined by flow cytometry using the FITC-conjugated 7G6 antibody (Pharmingen, San Diego, Calif.). MyD88 genotype was determined by PCR using the primers: MyD88F (5′-TGGCATGCCTCCATCATAGTTAACC-3′) [SEQ ID NO: 1], MyD88R (5′-GTCAGAAACAACCACCACCATGC-3′) [SEQ ID NO: 2], and neoR (5′-ATCGCCTTCTATCGCCTTCTTGACG-3′) [SEQ ID NO: 3] […]
Cell culture and reagents. […] Proliferation was assessed by ^3[H]-thymidine incorporation during the final 16 hours of culture. […] The percentage of the anti-IgM response was calculated according to the formula: [(cpm experimental condition−cpm CD40L alone)/(cpm anti-IgM−cpm CD40L alone)×100].

[4] = Table 1, column 2088: pre-incubated 30 minutes with ODN 2088 at 12 μg/ml
[5] = Table 1, column None: no ODN 2088 pre-incubation, lower level of sensitivity 50 pg/ml
[6] = Table 2, wildtype C57BL/6 dendritic cells

Compound: Cl.N [ammonium chloride]
- Inhibition of RF+ B cell response to mAb PL2-3 / chromatin-containing IC (AM14 RF+ B cells): inhibited

Compound: CO/C1=C\C(C)=C\[C@@H](C)[C@@H](O)[C@@H](C)C/C(C)=C/C=C/[C@H](OC)[C@@H]([C@@H](C)[C@@H](O)[C@H](C)[C@@]2(O)C[C@@H](O)[C@H](C)[C@@H](C(C)C)O2)OC1=O [bafilomycin A]
- Inhibition of RF+ B cell response to mAb PL2-3 / chromatin-containing IC (AM14 RF+ B cells): inhibited

Compound: CCN(CC)CCCC(C)Nc1ccnc2cc(Cl)ccc12 (stereo not drawn) [chloroquine]
- Inhibition of RF+ B cell response to mAb PL2-3 / chromatin-containing IC (AM14 RF+ B cells): completely blocked; also recorded: inhibited
- Inhibition of proliferative response to stimulatory CpG S-ODN 1826 (AM14 RF+ B cells; TLR9 ligand): inhibited
- Treatment of autoimmune diseases including rheumatoid arthritis and SLE [1]: effective treatment

Compound: C/C=C/[C@H]1O[C@@](O)([C@@H](C)[C@H](O)[C@H](C)[C@H]2OC(=O)/C(OC)=C/C(C)=C/[C@@H](C)[C@@H](O)[C@@H](CC)[C@@H](O)[C@H](C)C/C(C)=C/C=C/[C@@H]2OC)C[C@@H](O[C@H]2C[C@@H](O)[C@H](OC(N)=O)[C@@H](C)O2)[C@@H]1C [concanamycin A]
- Inhibition of RF+ B cell response to mAb PL2-3 / chromatin-containing IC (AM14 RF+ B cells): completely blocked

Compound: C/C=C/[C@H]1O[C@@](O)([C@@H](C)[C@H](O)[C@H](C)[C@H]2OC(=O)/C(OC)=C/C(C)=C/[C@@H](C)[C@@H](O)[C@@H](C)[C@@H](O)[C@H](C)C/C(C)=C/C=C/[C@@H]2OC)C[C@@H](O[C@H]2C[C@@H](O)[C@H](OC(N)=O)[C@@H](C)O2)[C@@H]1C [concanamycin B]
- Inhibition of RF+ B cell response to mAb PL2-3 / chromatin-containing IC (AM14 RF+ B cells): inhibited

Compound: DNase
- Effect of DNase on RF+ B cell proliferative response to anti-nucleosome mAb PL2-3 or autoimmune serum (AM14 RF+ B cells; DNase added to assay medium (FIG. 1)): dramatically reduced
- Effect of DNase on responses to F(ab')2 anti-IgM and LPS (AM14 RF+ B cells; FIG. 1, nonspecific toxicity control): unaffected

Compound: ODN 1826
- Cytokine production by dendritic cells ([2]; 3 μg/ml, 48 hours (FIGS. 8A, 8B)): induces TNF-α and IL-12 production
- Co-stimulatory molecule (CD86) expression on dendritic cells ([2]; FIG. 8C): induces upregulation of co-stimulatory molecules
- TNF-α in culture supernatants (ELISA) [2, 4]: <50 pg/mL
- TNF-α in culture supernatants (ELISA) [2, 5]: 2347 pg/mL
- TNF-α in culture supernatants (ELISA) [2, 6]: 7899 pg/mL
- TNF-α in culture supernatants (ELISA) [3]: 2373 pg/mL
- Proliferative response of B cells from RF+ MyD88-deficient mice (RF+ MyD88−/− B cells): unable to respond

Compound: lipopolysaccharide [LPS]
- TNF-α in culture supernatants (ELISA) [2, 4]: 2393 pg/mL
- TNF-α in culture supernatants (ELISA) [2, 5]: 2514 pg/mL
- TNF-α in culture supernatants (ELISA) [2, 6]: 7056 pg/mL
- TNF-α in culture supernatants (ELISA) [3]: 3411 pg/mL
- Proliferative response of B cells from RF+ MyD88-deficient mice (RF+ MyD88−/− B cells): responded only weakly
